The results in this text go back to patent publication US20140005163A1 (NOVARTIS AG, priority 2010, published 2014).

A word on the IC50: it is the concentration that gives 50% inhibition.

The test system of data set [1] is PKB Ser473 phosphorylation in Rat1-myr-HA-p110 beta cells. The experiment in a line: Reverse protein array assay, PKB Ser473 phosphorylation in Rat1-myr-p110 beta cells. In kind it is cell-based. Conditions: 0.5 h, pAkt Ser473, 30 minutes incubation, read-out: p-PKB IC50. An outline of the steps:
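Compound exposure lasted 30 min in Rat1 cells bearing membrane-targeted HA-p110 isoforms, using 8 serial concentrations. Arrayed lysates, each spotted at four dilutions, gave relative fluorescence signals for phospho-Ser473 PKB.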

Data set [2] can be described thus: Cellular CaCo2 permeability assay from apical to basal (A-B). The format is in vitro ADME. Conditions: human, Caco-2, read-out: Pe A-B (permeability). An excerpt: The permeability in 10^−6 cm/s of compounds of formula (I) have been confirmed for selected example using a cellular CaCo2 permeability assay from apical to basal (A-B): […]
Background: Passage across Caco-2 layers is used to estimate intestinal permeability.

Data set [3] deals with T1, PI3K gamma (Homo sapiens, UniProt P48736).
T1 construct: His tag (C); made in house; host or cells: baculovirus (pVL1393); Tn5 or TiniPro insect cells; construct from Roger Williams lab, MRC LMB
T1 sequence (P48736 144-1102 limits assumed): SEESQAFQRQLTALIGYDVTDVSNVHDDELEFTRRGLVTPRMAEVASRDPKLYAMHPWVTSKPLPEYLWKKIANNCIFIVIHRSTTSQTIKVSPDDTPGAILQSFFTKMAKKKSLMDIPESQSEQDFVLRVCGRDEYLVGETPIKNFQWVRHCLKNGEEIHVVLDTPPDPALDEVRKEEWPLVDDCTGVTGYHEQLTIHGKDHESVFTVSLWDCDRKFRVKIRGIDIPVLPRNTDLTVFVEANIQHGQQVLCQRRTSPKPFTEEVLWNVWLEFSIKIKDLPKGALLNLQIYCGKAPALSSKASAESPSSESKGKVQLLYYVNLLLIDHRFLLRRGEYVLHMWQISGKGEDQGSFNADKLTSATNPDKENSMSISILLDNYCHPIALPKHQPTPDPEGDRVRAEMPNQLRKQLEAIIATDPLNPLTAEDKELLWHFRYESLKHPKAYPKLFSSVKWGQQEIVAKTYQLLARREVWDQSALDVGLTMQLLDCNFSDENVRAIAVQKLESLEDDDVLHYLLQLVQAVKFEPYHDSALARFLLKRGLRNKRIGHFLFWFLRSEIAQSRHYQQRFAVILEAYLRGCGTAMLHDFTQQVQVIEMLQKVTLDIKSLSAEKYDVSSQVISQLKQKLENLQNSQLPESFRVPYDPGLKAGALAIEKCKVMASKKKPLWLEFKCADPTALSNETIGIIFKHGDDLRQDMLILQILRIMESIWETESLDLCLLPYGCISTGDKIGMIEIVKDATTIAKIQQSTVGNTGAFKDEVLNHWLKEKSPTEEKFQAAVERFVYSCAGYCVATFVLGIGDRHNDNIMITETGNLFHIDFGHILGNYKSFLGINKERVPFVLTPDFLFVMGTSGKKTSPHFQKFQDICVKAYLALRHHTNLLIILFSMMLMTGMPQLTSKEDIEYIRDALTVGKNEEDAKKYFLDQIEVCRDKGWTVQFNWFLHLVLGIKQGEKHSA
The experiment in a line: PI3K gamma kinase assay (Kinase-Glo luminescence). The format is biochemical. In a few lines: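 PI3Kγ (150 nM) reaction run 120 min at room temperature with phosphatidylinositol substrate (10 μg/mL) and ATP (1 μM) in Tris pH 7.5 buffer containing MgCl2, NaCl, CHAPS and DTT. Remaining ATP detected by Kinase-Glo luminescence; 8 concentrations per compound, IC50 from 4-parameter curve fitting.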
For orientation: Kinase-Glo reads ATP consumption through a luciferase reaction.

For the molecule `Cc1nn(C)cc1-n1c(=O)n(C)c2cnc3ccc(-c4cncc(N5CCOCC5)c4)cc3c21` [Example 175.1, 1-(1,3-Dimethyl-1H-pyrazol-4-yl)-3-methyl-8-(5-morpholin-4-yl-pyridin-3-yl)-1,3-dihydro-imidazo[4,5-c]quinolin-2-one], the IC50 in data set [1] came out at 37 nM. Besides, the Papp A→B in data set [2] was found to be 7.8 ×10⁻⁶ cm/s.

Consider `CCn1cc(-n2c(=O)n(C)c3cnc4ccc(-c5ccc(OC)nc5)cc4c32)c(C)n1` [Example 2.7, 1-(1-Ethyl-3-methyl-1H-pyrazol-4-yl)-8-(6-methoxy-pyridin-3-yl)-3-methyl-1,3-dihydro-imidazo[4,5-c]quinolin-2-one], for which the values for the half-inhibitory concentration (IC50) in data set [1] and in data set [3] were 38 nM and 217 nM, respectively. Further, the Papp A→B in data set [2] worked out at 21.5 ×10⁻⁶ cm/s.

Take `CCOc1ccc(-c2ccc3ncc4c(c3c2)n(-c2c(C)nn(C)c2C)c(=O)n4C)cn1` [Example 3.3, 8-(6-Ethoxy-pyridin-3-yl)-3-methyl-1-(1,3,5-trimethyl-1H-pyrazol-4-yl)-1,3-dihydro-imidazo[4,5-c]quinolin-2-one]: the concentration for half-maximal inhibition (IC50) turned out to be 548 nM in data set [1] and 309 nM in data set [3]. Besides, in data set [2], the Papp A→B came out at 21 ×10⁻⁶ cm/s.

Turning to `CCNc1cc(-c2ccc3ncc4c(c3c2)n(-c2cn(C)nc2Cl)c(=O)n4C)cnc1C` [Example 87.2, 1-(3-Chloro-1-methyl-1H-pyrazol-4-yl)-8-(5-ethylamino-6-methyl-pyridin-3-yl)-3-methyl-1,3-dihydro-imidazo[4,5-c]quinolin-2-one], the IC50 in data set [1] is under 5 nM. In addition, the Papp A→B in data set [2] is 29.9 ×10⁻⁶ cm/s.

Regarding `CCNc1cc(-c2ccc3ncc4c(c3c2)n(-c2cn(CC)nc2C)c(=O)n4C)cnc1CO` [Example 155.2, 8-(5-Ethylamino-6-hydroxymethyl-pyridin-3-yl)-1-(1-ethyl-3-methyl-1H-pyrazol-4-yl)-3-methyl-1,3-dihydro-imidazo[4,5-c]quinolin-2-one], in data set [1], the IC50 turned out to be 7 nM. The Papp A→B in data set [2] was determined as 10.9 ×10⁻⁶ cm/s.

For `COc1ccc(-c2ccc3ncc4c(c3c2)n(-c2cn(C)nc2C)c(=O)n4C)cn1` [Example 2.5, 1-(1,3-Dimethyl-1H-pyrazol-4-yl)-8-(6-methoxy-pyridin-3-yl)-3-methyl-1,3-dihydro-imidazo[4,5-c]quinolin-2-one], the IC50 in data set [1] came to 18 nM; in data set [3], 390 nM. Also, the Papp A→B in data set [2] is 38.4 ×10⁻⁶ cm/s.

Regarding `COc1ncc(-c2ccc3ncc4c(c3c2)n(-c2cn(C)nc2C)c(=O)n4C)cc1N` [Example 127, 8-(5-Amino-6-methoxy-pyridin-3-yl)-1-(1,3-dimethyl-1H-pyrazol-4-yl)-3-methyl-1,3-dihydro-imidazo[4,5-c]quinolin-2-one], the half-inhibitory concentration (IC50) in data set [1] came to 9 nM; in data set [3] it was 121 nM.

Take `CCn1cc(-n2c(=O)n(C)c3cnc4ccc(-c5ccc(OC)c(OC)c5)cc4c32)c(C)n1` [Example 1.6, 8-(3,4-Dimethoxy-phenyl)-1-(1-ethyl-3-methyl-1H-pyrazol-4-yl)-3-methyl-1,3-dihydro-imidazo[4,5-c]quinolin-2-one]: the IC50 in data set [1] turned out to be 22 nM; in data set [3], 157 nM. In data set [2], the Papp A→B turned out to be 31.6 ×10⁻⁶ cm/s.

As to `Cc1cc(-n2c(=O)n(C)c3cnc4ccc(-c5ccc(N(C)C)nc5)cc4c32)n(C)n1` [Example 4.6, 8-(6-Dimethylamino-pyridin-3-yl)-1-(2,5-dimethyl-2H-pyrazol-3-yl)-3-methyl-1,3-dihydro-imidazo[4,5-c]quinolin-2-one], the IC50 in data set [1] is 72 nM; in data set [3], 481 nM.

As for `CCOc1ccc(-c2ccc3ncc4c(c3c2)n(-c2cn(CC(=O)N(C)C)nc2C)c(=O)n4C)cn1` [Example 3.9, 2-{4-[8-(6-Ethoxy-pyridin-3-yl)-3-methyl-2-oxo-2,3-dihydro-imidazo[4,5-c]quinolin-1-yl]-3-methyl-pyrazol-1-yl}-N,N-dimethyl-acetamide], the half-inhibitory concentration (IC50) in data set [1] was determined as 19 nM. Also, in data set [2], the Papp A→B was 14.8 ×10⁻⁶ cm/s.

On to `Cc1nn(C)cc1-n1c(=O)n(C)c2cnc3ccc(-c4cncc(N5CCC5)c4)cc3c21` [Example 179, 8-(5-Azetidin-1-yl-pyridin-3-yl)-1-(1,3-dimethyl-1H-pyrazol-4-yl)-3-methyl-1,3-dihydro-imidazo[4,5-c]quinolin-2-one], for which the IC50 in data set [1] amounted to 21 nM. In data set [2], the Papp A→B came to 16 ×10⁻⁶ cm/s.

`Cc1cncc(-c2ccc3ncc4c(c3c2)n(-c2cn(C)nc2C)c(=O)n4C)c1` [Example 24, 1-(1,3-Dimethyl-1H-pyrazol-4-yl)-3-methyl-8-(5-methyl-pyridin-3-yl)-1,3-dihydro-imidazo[4,5-c]quinolin-2-one]: the values for the IC50 in data set [1] and in data set [3] were 124 nM and 111 nM, respectively.

With `Cc1nn(C)cc1-n1c(=O)n(C)c2cnc3ccc(-c4ccc(N(C)C)nc4)cc3c21` [Example 4.5, 8-(6-Dimethylamino-pyridin-3-yl)-1-(1,3-dimethyl-1H-pyrazol-4-yl)-3-methyl-1,3-dihydro-imidazo[4,5-c]quinolin-2-one], the 50% inhibitory concentration (IC50) in data set [1] was 17 nM; in data set [3] it was 292 nM. For the same molecule, in data set [2], the Papp A→B turned out to be 16.1 ×10⁻⁶ cm/s.

With `CCOc1ccc(-c2ccc3ncc4c(c3c2)n(-c2cn(C(C)C)nc2C)c(=O)n4C)cn1` [Example 3.7, 8-(6-Ethoxy-pyridin-3-yl)-1-(1-isopropyl-3-methyl-1H-pyrazol-4-yl)-3-methyl-1,3-dihydro-imidazo[4,5-c]quinolin-2-one], the IC50 in data set [1] was found to be 51 nM; in data set [3], 303 nM. In data set [2], the Papp A→B was determined as 27.8 ×10⁻⁶ cm/s.

With `CNC(=O)c1cc(-c2ccc3ncc4c(c3c2)n(-c2cn(C)nc2C)c(=O)n4C)cnc1OC` [Example 125.1, 5-[1-(1,3-Dimethyl-1H-pyrazol-4-yl)-3-methyl-2-oxo-2,3-dihydro-1H-imidazo[4,5-c]quinolin-8-yl]-2-methoxy-N-methyl-nicotinamide], the results for the concentration for half-maximal inhibition (IC50) in data set [1] and in data set [3] were 98 nM and 363 nM, respectively.

On to `Cc1ncc(-c2ccc3ncc4c(c3c2)n(-c2cn(C)nc2C)c(=O)n4C)cc1NS(C)(=O)=O` [Example 76, N-{5-[1-(1,3-Dimethyl-1H-pyrazol-4-yl)-3-methyl-2-oxo-2,3-dihydro-1H-imidazo[4,5-c]quinolin-8-yl]-2-methyl-pyridin-3-yl}-methanesulfonamide], for which the results for the IC50 in data set [1] and in data set [3] were 356 nM and 96 nM, respectively.

Regarding `CCOc1ncc(-c2ccc3ncc4c(c3c2)n(-c2cn(C)nc2C)c(=O)n4C)cc1N(C)C(C)=O` [Example 63, N-{5-[1-(1,3-Dimethyl-1H-pyrazol-4-yl)-3-methyl-2-oxo-2,3-dihydro-1H-imidazo[4,5-c]quinolin-8-yl]-2-ethoxy-pyridin-3-yl}-N-methyl-acetamide], the IC50 in data set [1] turned out to be 744 nM; in data set [3] it was 816 nM.

For `COCc1ccc(-c2ccc3ncc4c(c3c2)n(-c2cn(C(C)C)nc2C)c(=O)n4C)cn1` [Example 105, 1-(1-Isopropyl-3-methyl-1H-pyrazol-4-yl)-8-(6-methoxymethyl-pyridin-3-yl)-3-methyl-1,3-dihydro-imidazo[4,5-c]quinolin-2-one], the values for the IC50 in data set [1] and in data set [3] were 41 nM and 310 nM, respectively.
